# PMC2932657 (Chemistry & biology, 2010)
# pKd: −log10 of the molar value.
# Molecular target: PimD (Streptomyces natalensis, UniProt Q9EW92)
# Experiment: UV-visible difference spectrophotometric titration
# Type: binding
compound,measurement,value
"C[C@@H]1C/C=C/C=C/C=C/C=C/[C@H](O[C@@H]2O[C@H](C)[C@@H](O)[C@H](N)[C@@H]2O)C[C@@H]2O[C@](O)(C[C@@H](O)C/C=C/C=C/C(=O)O1)C[C@H](O)[C@H]2C(=O)O [4,5-desepoxypimaricin]",pKd,5.40
